The values below come from the NIST ThermoML archive (doi:10.1021/acs.jced.7b00518).

Series [1] in a line: Molar enthalpy of transition or fusion. To be noted: Crystal; DSC.
The conditions of series [2]: Crystal; DTA.

Numbers after ± are expanded uncertainties.

With `O=C(O)/C=C/C(=O)O.OCCOCCN1CCN(C2=Nc3ccccc3Sc3ccccc32)CC1.OCCOCCN1CCN(C2=Nc3ccccc3Sc3ccccc32)CC1` [quetiapine fumarate], the “Molar enthalpy of transition or fusion” value in series [1] was 17.8 ± 0.478 kcal/mol. For the same compound, the Normal melting temperature in series [2] was 173.47 ± 0.61 °C.
